These results are taken from US8835502B2, “Treatment of friedreich's ataxia using histone deacetylase inhibitors” (The Scripps Research Institute, priority 2005, dated 2014).

Data set [1] concerns frataxin mRNA in affected GM15850 cells. As to the kind of experiment: Frataxin mRNA by real-time quantitative RT-PCR in FRDA lymphoid cell line GM15850. In kind it is cell-based, human. As to the method:
(§1) Real-time quantitative RT-PCR analysis was performed essentially as described in Chuma et al., Hepatology 37:198-207 (2003) using the following primers for the frataxin gene: 5′-[…]-3′ and 5′-[…]-3′. RNA was standardized by quantification of GAPDH mRNA as described in Pattyn et al., Nucl. Acids Res. 31:122-3 (2003), and all values are expressed relative to GAPDH. Quantitative real-time RT-PCR was performed using iScript One-Step RT-PCR kit with SYBR green (BioRad). Statistical analysis was performed on three independent quantitative RT-PCR experiments for each RNA sample, and error bars shown in the figures represent standard errors of the mean.

Data set [2] deals with frataxin protein in the FRDA lymphoid cell line. As to the kind of experiment: Frataxin protein by western blot in FRDA lymphoid cell line. Conditions: 4 days. In kind it is cell-based, human. In general terms: In western blotting, separated proteins are transferred to a membrane and probed.
The test system of data set [3] is frataxin mRNA in primary lymphocytes. Description: Frataxin mRNA by qRT-PCR in primary lymphocytes from FRDA patients, carriers and normal relatives. It counts as cell-based, human. As to conditions: 48 hours. Here is the method:
as §1
The Friedreich's Ataxia Research Alliance (Arlington, Va.) recruited a series of families with affected individuals and siblings or parents for anonymous blood donation (with a Human Subjects Protocol approved by the Scripps Clinic Human Subjects Committee and by NINDS, with appropriate informed consent). Blood was collected in heparinized Vacutainer tubes (#364680, BD Biosciences) and lymphocytes were isolated by density centrifugation using Ficoll-Paque PLUS (Amersham Biosciences), according to the manufacturer. Lymphocytes were maintained in the same culture medium and conditions as the established cell lines, and HDAC inhibitor treatment was as described above. Cells were treated with HDAC inhibitors after 16 h, and RNA isolated after subsequent 48 h incubation. Under these culture conditions, no increases in cell number were observed.
(Real-time PCR tracks product formation cycle by cycle.)

In a further data set the test system is lymphoid cell lines. As to the kind of experiment: Viability, cytotoxicity (trypan blue exclusion) and growth of lymphoid cell lines. In kind it is cell-based, human. As to conditions: 1 to 5 μM.
Data set [4] has as its target total histone deacetylation in a HeLa nuclear extract. Description: Histone deacetylase assay (BioMol AK500 kit), HeLa nuclear extract. In kind it is biochemical. Conditions: HeLa nuclear extract; read-out: IC50, total histone deacetylation inhibition (converted). Here is the method:
Each of the histone deacetylase inhibitors was assayed with the BioMol AK500 kit to determine IC50 values. Samples were processed as described by BioMol and read with a 96-well fluorescence plate reader. A semi-logarithmic plot of the data was analyzed with Kaleidagraph software to obtain the IC50 value.

Setting [5] is: FRDA lymphocytes of affected individual S, 5 μM.

Several values for one entry are separate records, joined by “and”; a condition that tells them apart may be missing. Identical values can stand only once.

With `Nc1ccccc1NC(=O)CCCCCCC(=O)Nc1ccccc1` [Compound 4c, N^1-(2-Aminophenyl)-N^8-phenyloctanediamide], the “Effect on frataxin mRNA level (frataxin transcription), FIG. 2B” value in data set [1] (FRDA cell line, each inhibitor at the IC50 value reported by the supplier, normalized to GAPDH) is about 2 fold. Further, in data set [1] (Homo sapiens, GM15850, 96 h, affected GM15850 cells, 5 μM, 96 h, normalized to GAPDH mRNA, relative to untreated control cells, read-out: Fold-change of frataxin mRNA), the fold induction at 5 µM came out at 1.4 ± 0.06. Also, in data set [2] (2.5 μM), the “Fold change in frataxin protein compared to untreated control cells, normalized to actin” value is on record as 1.6 fold. Also, the “Fold change in frataxin protein compared to untreated control cells, normalized to actin” value in data set [2] (5 μM) is ~3 fold and 3.4 fold. Moreover, in data set [3] (setting [5]), the “Fold increase of relative frataxin mRNA level” value amounted to 1.8 fold and the “Percent increase of relative frataxin mRNA level” value worked out at 80%. Besides, in data set [3] (lymphocytes from the unaffected sibling A), the “Increase of frataxin mRNA” value was “no positive effect”. Also, in the data set with lymphoid cell lines, the “Cytotoxicity to the lymphoid cell lines (trypan blue exclusion)” value is “not cytotoxic”. In the data set with lymphoid cell lines (lymphoid cell lines), the “Effect on cell growth rates” value is recorded as “does not markedly affect cell growth rates”. Besides, in data set [4], the IC50 is 87 µM.

Usually IC50 stands for the concentration that gives 50% inhibition.
